Results taken from patent US9957299B2, “Peptidomimetic macrocycles” (AILERON THERAPEUTICS, INC., priority 2010, dated 2018).
Bridge positions count the residues as written; N and C are the ends. Square brackets hold non-standard residues; d marks the D form. Peptide text beside a SMILES is read from it. * marks the point of attachment. Trp(6-Cl) = N[C@@H](Cc1c[nH]c2cc(Cl)ccc12)C(=O)O; R8 = C=CCCCCCC[C@@](C)(N)C(=O)O; S5 = C=CCCC[C@](C)(N)C(=O)O; X1 = COCCOCCOCCOC(=O)*; Ac3c = NC1(C(=O)O)CC1

Columns and labels:
HDMx = HDMx (Homo sapiens, UniProt O15151); assay: FP Competition Blinding Assay | HDMx IC50 (nM)
HDMx, sequence (O15151 whole entry, looked up): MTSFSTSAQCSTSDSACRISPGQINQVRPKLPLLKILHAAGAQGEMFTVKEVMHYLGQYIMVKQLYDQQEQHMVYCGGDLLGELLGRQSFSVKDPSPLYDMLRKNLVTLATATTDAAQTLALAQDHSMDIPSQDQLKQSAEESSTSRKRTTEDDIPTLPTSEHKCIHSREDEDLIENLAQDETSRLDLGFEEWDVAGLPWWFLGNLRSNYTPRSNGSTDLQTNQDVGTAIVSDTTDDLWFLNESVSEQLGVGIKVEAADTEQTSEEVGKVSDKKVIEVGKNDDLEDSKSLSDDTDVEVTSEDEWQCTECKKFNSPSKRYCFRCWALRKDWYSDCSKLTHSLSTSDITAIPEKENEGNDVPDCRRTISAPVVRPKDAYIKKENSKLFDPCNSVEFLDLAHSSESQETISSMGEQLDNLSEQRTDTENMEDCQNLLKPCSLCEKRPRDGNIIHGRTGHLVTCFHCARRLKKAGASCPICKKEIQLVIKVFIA

HDM2 = HDM2 (Homo sapiens, UniProt Q00987); assay: FP Competition Blinding Assay | HDM2 IC50 (nM)
HDM2, sequence (Q00987 whole entry, looked up): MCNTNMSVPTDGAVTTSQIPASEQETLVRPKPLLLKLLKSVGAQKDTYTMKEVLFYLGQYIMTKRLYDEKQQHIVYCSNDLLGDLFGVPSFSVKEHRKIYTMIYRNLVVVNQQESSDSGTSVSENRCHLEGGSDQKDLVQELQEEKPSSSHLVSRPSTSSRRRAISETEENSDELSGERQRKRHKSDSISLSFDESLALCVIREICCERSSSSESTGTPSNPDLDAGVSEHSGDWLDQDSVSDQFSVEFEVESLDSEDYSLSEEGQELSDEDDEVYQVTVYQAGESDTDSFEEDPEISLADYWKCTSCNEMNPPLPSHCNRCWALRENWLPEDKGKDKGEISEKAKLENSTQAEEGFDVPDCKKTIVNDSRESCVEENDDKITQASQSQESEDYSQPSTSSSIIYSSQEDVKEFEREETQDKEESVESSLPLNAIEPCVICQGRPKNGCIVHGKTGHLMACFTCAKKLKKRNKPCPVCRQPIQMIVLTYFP

| Compound | IC50 (HDMx) [µM] | IC50 (HDM2) [µM] |
| --- | --- | --- |
| CC(=O)N[C@@H](CC(C)C)C(=O)N[C@H](C(=O)N[C@@H](Cc1ccccc1)C(=O)N[C@]1(C)CCCCCCC=CCCC[C@@](C)(C(=O)N[C@@H](CO)C(N)=O)NC(=O)[C@H](CC(C)C)NC(=O)[C@H](CCC(N)=O)NC(=O)[C@H](C)NC(=O)[C@H](Cc2c[nH]c3ccccc23)NC(=O)[C@H](Cc2ccc(O)cc2)NC(=O)[C@H](Cc2ccccc2)NC1=O)[C@@H](C)O [SP-267, Ac- L T F $r8 F Y W A Q L $ S -NH2] (Ac-LTF[R8]FYWAQL[S5]S-NH2; staple 4-11) | 0.318 |  |
| COCCOCCOCCOC(=O)N[C@@H](CC(C)C)C(=O)N[C@H](C(=O)N[C@@H](Cc1ccccc1)C(=O)N[C@]1(C)CCCCCCC=CCCC[C@@](C)(C(=O)N[C@@H](CO)C(N)=O)NC(=O)[C@H](CC(C)C)NC(=O)[C@H](CCC(N)=O)NC(=O)[C@H](C)NC(=O)[C@H](Cc2c[nH]c3ccccc23)NC(=O)[C@H](Cc2ccc(O)cc2)NC(=O)[C@H](C)NC1=O)[C@@H](C)O [SP-580, mdPEG3-L T F $r8 A Y W A Q L $ S -NH2] (X1-LTF[R8]AYWAQL[S5]S-NH2; staple 4-11) | 0.195 | 0.081 |
| CC(=O)N[C@@H](CC(C)C)C(=O)N[C@H](C(=O)N[C@@H](Cc1ccccc1)C(=O)N[C@]1(C)CCCCCCC=CCCC[C@@](C)(C(=O)N[C@@H](CO)C(N)=O)NC(=O)[C@H](CC(C)C)NC(=O)[C@H](CCC(N)=O)NC(=O)[C@H](C)NC(=O)[C@H](Cc2c[nH]c3ccccc23)NC(=O)[C@H](Cc2ccc(O)cc2)NC(=O)[C@H](C(C)C)NC1=O)[C@@H](C)O [SP-266, Ac- L T F $r8 V Y W A Q L $ S -NH2] (Ac-LTF[R8]VYWAQL[S5]S-NH2; staple 4-11) |  | 0.066 |
| CC(=O)N[C@@H](CC(C)C)C(=O)N[C@H](C(=O)N[C@@H](Cc1ccccc1)C(=O)N[C@]1(C)CCCCCCC=CCCC[C@@](C)(C(=O)N[C@@H](CO)C(N)=O)NC(=O)[C@H](CC(C)C)NC(=O)[C@H](CCC(N)=O)NC(=O)[C@H](C)NC(=O)[C@H](Cc2c[nH]c3ccccc23)NC(=O)[C@H](Cc2ccc(O)cc2)NC(=O)[C@H](C)NC1=O)[C@@H](C)O [SP-191, Ac- L T F $r8 A Y W A Q L $ S -NH2] (Ac-LTF[R8]AYWAQL[S5]S-NH2; staple 4-11) | 0.097 | 0.0749 |

The remaining lines, values ahead:

| IC50 (HDMx) [µM] | IC50 (HDM2) [µM] | Compound |
| --- | --- | --- |
|  | 0.0162 | CC(=O)N[C@@H](CC(C)C)C(=O)N[C@H](C(=O)N[C@@H](Cc1ccccc1)C(=O)N[C@]1(C)CCCCCCC=CCCC[C@@](C)(C(=O)N[C@@H](CO)C(N)=O)NC(=O)[C@H](CC(C)C)NC(=O)[C@H](CCC(N)=O)NC(=O)[C@H](C)NC(=O)[C@H](Cc2c[nH]c3ccccc23)NC(=O)[C@H](Cc2ccc(O)cc2)NC(=O)[C@H](CCC(=O)O)NC1=O)[C@@H](C)O [SP-512, Ac- L T F $r8 E Y W A Q F $ S -NH2] (Ac-LTF[R8]EYWAQL[S5]S-NH2; staple 4-11) |
| 0.967 |  | CC(=O)N[C@@H](Cc1ccccc1)C(=O)N[C@]1(C)CCCCCCC=CCCC[C@@](C)(C(=O)N[C@@H](C)C(N)=O)NC(=O)[C@H](CC(C)C)NC(=O)C2(CC2)NC(=O)[C@H](CCC(=O)O)NC(=O)[C@H](Cc2c[nH]c3cc(Cl)ccc23)NC(=O)[C@H](Cc2ccc(O)cc2)NC(=O)[C@H](C)NC1=O [SP-128, Ac- F $r8 A Y 6clW E Ac3c L $ A -NH2] (Ac-F[R8]AY[Trp(6-Cl)]E[Ac3c]L[S5]A-NH2; staple 2-9) |
| 0.463 |  | CC(=O)N[C@@H](CC(C)C)C(=O)N[C@H](C(=O)N[C@@H](Cc1ccccc1)C(=O)N[C@]1(C)CCCCCCC=CCCC[C@@](C)(C(=O)N[C@@H](C)C(N)=O)NC(=O)[C@H](CC(C)C)NC(=O)[C@H](CCC(N)=O)NC(=O)[C@H](C)NC(=O)[C@H](Cc2c[nH]c3ccccc23)NC(=O)[C@H](Cc2ccc(O)cc2)NC(=O)[C@H](C)NC1=O)[C@@H](C)O [SP-194, Ac- L T F $r8 A Y W A Q L $ A -NH2] (Ac-LTF[R8]AYWAQL[S5]A-NH2; staple 4-11) |
